The nature of series [1]: Conversion rate of salt-form prodrugs to parent compound in HEPES buffer solution. The series is classed as physicochemical. Conditions: conversion to Compound 1, HEPES buffer pH 7.4, 37 °C. On the procedure: Adjust the pH to 7.4 using 0.5 M NaOH, then dilute to a final volume 100 mL with distilled water.
(§1) Sample Analysis: Dissolve 0.6 mg of the compound in 250 µl of deionized water separately. Add 250 µl of mouse serum or HEPES 7.4 solution to the sample, incubate at a constant temperature of 37 °C, and collect samples at different time points. Pipette 20 µl of the sample to an EP tube, add 60 µl of methanol, vortex to mix thoroughly, and centrifuge at 12,000 rpm at 4 °C for 10 min. At 1 h, 2 h, 4 h, 8 h, and 12 h respectively, collect the supernatant for HPLC analysis. Inject 10 µL of sample and record the corresponding peak areas.

Series [2] is described as follows: Conversion rate of salt-form prodrugs to parent compound in mouse plasma. The series is classed as in vitro ADME. Conditions: conversion to Compound 1, mouse plasma, 37 °C. On the procedure:
Pharmaceutically acceptable salts of guaiane-type sesquiterpene lactone derivatives were selected and evaluated for their conversion rates to Compound 1 and Compound 83 in plasma and HEPES buffer, with results shown in Tables 2-1, 2-2, 3-1, and 3-2.
Plasma Preparation: Collect mouse plasma into an EP tube pre-loaded with sodium heparin, centrifuge at 8000 rpm for 10 minutes at 4°C, and then collect the supernatant.
as §1, with “areas. Chromatographic conditions: Hanbang C18 column (4.6 × 250 mm, 5 µm); mobile phase: acetonitrile: […] ammonium formate solution = 60:40; flow rate 1.0 mL/min; detection wavelength 210 nm; column temperature 30 °C. [drawing 171] Table 2-1. Conversion Rate of Compounds 20-42 to Compound 1 at Different Time Points in HEPES Buffer Solution” for “areas.”

In the case of `C[C@@]12CC[C@@H]3[C@H](OC(=O)[C@H]3CN3CCC(N4CCCCC4)CC3)[C@@H]3[C@]1(CC[C@@]3(C)O)C2` [compound 35], the Release rate in series [1] (1 h) is listed as 6.8%; in series [1] (2 h), 14.6%; in series [1] (4 h) it was 26.4%; in series [1] (8 h), 43.8%; in series [1] (12 h), 52.5%; in series [2] (1 h), 6.8%. For the same compound, the Release rate in series [2] (2 h) came out at 13.6%; in series [2] (4 h), 26.4%; in series [2] (8 h), 44.8%; in series [2] (12 h) it was 52.5%.
On to `C[C@@]12CC[C@@H]3[C@H](OC(=O)[C@H]3CN3CCC4(CC3)CC4)[C@@H]3[C@]1(CC[C@@]3(C)O)C2` [compound 37], for which the Release rate in series [1] (1 h) amounted to 7.2%; in series [1] (2 h), 16.8%; in series [1] (4 h), 28.3%; in series [1] (8 h), 44.1%; in series [1] (12 h) it was 65.8%; in series [2] (1 h), 8.2%. The Release rate is given as 17.8% in series [2] (2 h), 29.3% in series [2] (4 h), 48.1% in series [2] (8 h) and 67.8% in series [2] (12 h).
`C[C@@]12CC[C@@H]3[C@H](OC(=O)[C@H]3CN3CCOCC3)[C@@H]3[C@]1(CC[C@@]3(C)O)C2` [compound 25]: the Release rate in series [1] (1 h) turned out to be 6.8%; in series [1] (2 h) it was 14.1%; in series [1] (4 h) it was 26.1%; in series [1] (8 h), 42.8%; in series [1] (12 h) it was 51.8%; in series [2] (1 h), 6.8%. Moreover, the Release rate in series [2] (2 h) was determined as 14.1%; in series [2] (4 h) it was 25.7%; in series [2] (8 h), 43.8%; in series [2] (12 h) it was 51.8%.
`CN(C)C[C@@H]1C(=O)O[C@H]2[C@H]1CC[C@@]1(C)C[C@]13CC[C@@](C)(O)[C@H]23` [compound 42]: the Release rate in series [1] (1 h) was 7.0%; in series [1] (2 h), 15.0%; in series [1] (4 h) it was 25.2%; in series [1] (8 h), 42.8%; in series [1] (12 h), 52.3%; in series [2] (1 h), 6.3%. The values for the Release rate in series [2] (2 h), in series [2] (8 h) and in series [2] (12 h) were 14.2%, 41.0% and 47.2%, respectively.
As to `CN(C)C[C@@H]1C(=O)O[C@H]2[C@H]1CC[C@@]1(C)C[C@]13CC[C@@](C)(O)[C@H]23` [compound 40], the Release rate in series [1] (1 h) was found to be 6.8%; in series [1] (2 h), 14.6%; in series [1] (8 h), 44.0%; in series [1] (12 h), 50.2%; in series [2] (1 h) it was 6.7%; in series [2] (2 h), 14.2%. The figures for the Release rate in series [2] (8 h) and in series [2] (12 h) were 44.0% and 52.6%, respectively.
For the compound `C[C@@]12CC[C@@H]3[C@H](OC(=O)[C@H]3CN3CCCCC3)[C@@H]3[C@]1(CC[C@@]3(C)O)C2` [compound 24], the Release rate is reported as 6.8% in series [1] (1 h); 15.1% in series [1] (2 h); 26.7% in series [1] (4 h); 42.8% in series [1] (8 h); 54.0% in series [1] (12 h); 7.7% in series [2] (1 h). The Release rate in series [2] (2 h) was 17.1%; in series [2] (4 h), 27.7%; in series [2] (8 h), 47.8%; in series [2] (12 h), 57.9%.
In the case of `C[C@@]12CC[C@@H]3[C@H](OC(=O)[C@H]3CN3CCCC3)[C@@H]3[C@]1(CC[C@@]3(C)O)C2` [compound 22], the Release rate in series [1] (1 h) was determined as 6.4%; in series [1] (2 h) it was 14.8%; in series [1] (4 h) it was 26.6%; in series [1] (8 h), 41.3%; in series [1] (12 h), 53.7%.
`CCCN(CCC)C[C@@H]1C(=O)O[C@H]2[C@H]1CC[C@@]1(C)C[C@]13CC[C@@](C)(O)[C@H]23` [compound 29]: the Release rate in series [1] (1 h) is reported as 6.8%; in series [1] (2 h), 14.2%; in series [1] (4 h) it was 24.6%; in series [1] (8 h), 40.2%; in series [1] (12 h), 49.8%; in series [2] (1 h), 6.8%. Besides, the Release rate is listed as 14.2% in series [2] (2 h), 24.6% in series [2] (4 h), 40.2% in series [2] (8 h) and 49.0% in series [2] (12 h).
`CCCCN(CCCC)C[C@@H]1C(=O)O[C@H]2[C@H]1CC[C@@]1(C)C[C@]13CC[C@@](C)(O)[C@H]23` [compound 30]: the Release rate in series [1] (1 h) stood at 6.6%; in series [1] (2 h), 14.6%; in series [1] (4 h), 23.8%; in series [1] (8 h) it was 40.8%; in series [1] (12 h), 49.8%; in series [2] (1 h) it was 6.6%. Also, the Release rate in series [2] (2 h) turned out to be 13.6%; in series [2] (4 h), 23.8%; in series [2] (8 h), 40.8%; in series [2] (12 h) it was 48.8%.
Turning to `C[C@@]12CC[C@@H]3[C@H](OC(=O)[C@H]3CN3CC4CCCC4C3)[C@@H]3[C@]1(CC[C@@]3(C)O)C2` (some centres unmarked) [compound 32], the Release rate in series [1] (1 h) is recorded as 6.9%; in series [1] (2 h), 15.4%; in series [1] (4 h) it was 26.2%; in series [1] (8 h) it was 42.2%; in series [1] (12 h), 51.2%; in series [2] (1 h), 6.3%. For the same compound, the Release rate in series [2] (2 h) is 14.4%; in series [2] (4 h) it was 25.2%; in series [2] (8 h) it was 43.2%; in series [2] (12 h), 51.4%.
With `CCN1CCN(C[C@@H]2C(=O)O[C@H]3[C@H]2CC[C@@]2(C)C[C@]24CC[C@@](C)(O)[C@H]34)CC1` [compound 27], the Release rate was 7.9% in series [2] (1 h); 17.4% in series [2] (2 h); 28.4% in series [2] (4 h); 48.2% in series [2] (8 h); 59.1% in series [2] (12 h).
For `C[C@@]12CC[C@@H]3[C@H](OC(=O)[C@H]3CN3CCC4(CCCC4)CC3)[C@@H]3[C@]1(CC[C@@]3(C)O)C2` [compound 34], the Release rate in series [1] (1 h) came to 7.0%; in series [1] (2 h), 16.2%; in series [1] (4 h) it was 27.6%; in series [1] (8 h) it was 43.6%; in series [1] (12 h), 54.4%; in series [2] (1 h) it was 7.8%. For the same compound, the Release rate is on record as 17.2% in series [2] (2 h), 28.6% in series [2] (4 h), 47.6% in series [2] (8 h) and 58.8% in series [2] (12 h).
As for `CCOC(=O)[C@@H]1CCCN1C[C@@H]1C(=O)O[C@H]2[C@H]1CC[C@@]1(C)C[C@]13CC[C@@](C)(O)[C@H]23` [compound 23], the Release rate in series [1] (1 h) is recorded as 6.2%; in series [1] (2 h), 14.3%; in series [1] (4 h), 26.8%; in series [1] (8 h) it was 41.1%; in series [1] (12 h), 52.8%; in series [2] (1 h), 7.2%. Further, the Release rate in series [2] (2 h) is 14.3%; in series [2] (4 h) it was 26.8%; in series [2] (8 h), 45.1%; in series [2] (12 h) it was 52.8%.
Consider `C[C@@]12CC[C@@H]3[C@H](OC(=O)[C@H]3CN3CCNCC3)[C@@H]3[C@]1(CC[C@@]3(C)O)C2` [compound 26], for which the Release rate was 6.8% in series [1] (1 h); 16.1% in series [1] (2 h); 27.3% in series [1] (4 h); 43.5% in series [1] (8 h); 55.6% in series [1] (12 h).

These data come from patent EP4813381A1, “PHARMACEUTICAL USE OF GUAIANE SESQUITERPENE DERIVATIVE” (Nanjing University Of Chinese Medicine, priority 2023, dated 2025).
